Earlier results in article PMC6005628, “Molecular genetic characteristics of influenza A virus clinically isolated during 2011‐2016 influenza seasons in Korea” (Influenza and Other Respiratory Viruses, 2018).

Test system: NA protein with single I222V/M substitution

CCOC(=O)C1=C[C@@H](OC(CC)CC)[C@H](NC(C)=O)[C@@H](N)C1 [oseltamivir]
resistance associated with NA substitution: marginal levels of resistance
